Data published in patent US12612413B2, “Heteroaryl compounds as inhibitors of programmed necrosis pathway, composition and method using the same” (ACCRO BIOSCIENCE INC., priority 2020, dated 2026).
Where a name gives a salt, the structure may show the parent alone.

Tested on: HT-29 cells
Experiment: HT-29 cell viability (necroptosis) assay
Assay type: cell-based
Settings: Homo sapiens, TNF-α (40 ng/mL), Smac mimetic (100 nM), z-VAD (20 μM), 40 h, from survival rate curve
Protocol: Human colon cancer HT-29 cells were used in a necroptosis assay. For this assay, HT-29 cells were added to 96-well plates. The compounds at different concentrations (0.3, 1.0, 3.0, 10.0, 20.0 μM) were then preprocessed for two hours. TNF-α (40 ng/mL), Smac mimetic (100 nM) and z-VAD (20 μM) were added, and the mixture was incubated for 40 h. Quantitative analysis of cell viability was conducted. DMSO pretreatment group was used as a negative control. Concentration for 50% of maximal effect was calculated according to the curve of the survival rate measured at different concentrations. FIG. 1 depicts the EC50 curves of compound A16.

Compound	EC50 [nM]
CC1=Cc2cc3nccc(Nc4cc(O)ccc4F)c3cc2S1(=O)=O [Compound A52]	260
CC1(C)C(O)c2cc3nccc(Nc4ccc5scnc5c4)c3cc2S1(=O)=O (stereo not shown) [Compound B9]	620
O=S1(=O)C=C(OC2COC2)c2cc3nccc(Nc4ccc5scnc5c4)c3cc21 [Compound A118]	290
CN1CCC(OC2=CS(=O)(=O)c3cc4c(Nc5ccc6scnc6c5)ccnc4cc32)C1 (stereo not shown) [Compound A114]	310
O=C1CS(=O)(=O)c2cc3c(Nc4ccc5scnc5c4)ccnc3cc21 [Compound B3, 8-(benzo[d]thiazol-5-ylamino)thieno[2,3-g]quinolin-3(2H)-one 1,1-dioxide hydrochloride]	3240
CC1=Cc2cc3nccc(Nc4ccn5ccnc5c4)c3cc2S1(=O)=O [Compound A67, 8-(imidazo[1,2-a]pyridin-7-ylamino)-2-methylthieno[2,3-g]quinoline 1,1-dioxide]	5710
O=S1(=O)C=C(c2ccc(O)cc2)c2cc3nccc(Nc4ccc5scnc5c4)c3cc21 [Compound A24]	500
O=S1(=O)C=C(C2CC2)c2cc3nccc(Nc4ccc5nn[nH]c5c4)c3cc21 [Compound A92]	420
CC1(C)C(=O)c2cc3nccc(Nc4cc(O)c(Cl)cc4F)c3cc2S1(=O)=O [Compound B16]	1260
O=S1(=O)CC2(CCCO2)c2cc3nccc(Nc4ccc5scnc5c4)c3cc21 (stereo not shown) [Compound B27]	2200
O=S1(=O)C(C2CC2)=Cc2cc3nccc(Nc4ccc5scnc5c4)c3cc21 [Compound A6]	540
NCCOC1=CS(=O)(=O)c2cc3c(Nc4ccc5scnc5c4)ccnc3cc21 [Compound A110]	2080
CC(C)OC1=Cc2cc3nccc(Nc4ccc5scnc5c4)c3cc2S1(=O)=O [Compound A15]	500
O=S1(=O)C=C(C2CC2)c2cc3nccc(Nc4cc(O)c(Cl)cc4F)c3cc21 [Compound A101]	400
N#Cc1ccc(C2=CS(=O)(=O)c3cc4c(Nc5ccc6scnc6c5)ccnc4cc32)cc1 [Compound A25]	300
Cc1[nH]nc(Nc2ccnc3cc4c(cc23)S(=O)(=O)C=C4C2CC2)c1C [Compound A96]	590
CC1(C)C(=O)c2cc3nccc(Nc4cc(O)ccc4F)c3cc2S1(=O)=O [Compound B14]	320
CC1=CS(=O)(=O)c2cc3c(Nc4cc(O)c(F)cc4F)ccnc3cc21 [Compound A83]	1000
CC1=Cc2cc3nccc(Nc4ccc(O)c(C#N)c4)c3cc2S1(=O)=O [Compound A58]	3950
Cc1cc(C2=CS(=O)(=O)c3cc4c(Nc5ccc6scnc6c5)ccnc4cc32)n(C)n1 [Compound A32]	1200
COC1=C(C)S(=O)(=O)c2cc3c(Nc4ccc5scnc5c4)ccnc3cc21 [Compound A19]	200
O=S1(=O)C=C(OC2CCOC2)c2cc3nccc(Nc4ccc5scnc5c4)c3cc21 (stereo not shown) [Compound A115]	280

Same assay, conditions: Homo sapiens, compound at 20 μM, TNF-α (40 ng/mL), Smac mimetic (100 nM), z-VAD (20 μM), 40 h, read-out: HT-29(20 μM) Survival

Compound	viability at 20 µM [%]
Nc1cncc(Nc2ccnc3cc4c(cc23)S(=O)(=O)C=C4C2CC2)c1 [Compound A103]	46.1
CC(=O)Nc1ccc(C)c(Nc2ccnc3cc4c(cc23)S(=O)(=O)C=C4C)c1 [Compound A77]	12.9
CN(C)CCOC1=CS(=O)(=O)c2cc3c(Nc4ccc5scnc5c4)ccnc3cc21 [Compound A112]	37.2
N#Cc1cc(O)cc(Nc2ccnc3cc4c(cc23)S(=O)(=O)C=C4C2CC2)c1 [Compound A99]	72.7
CC1=Cc2cc3nccc(Nc4cc(CN)ccc4C)c3cc2S1(=O)=O [Compound A50, 8-((5-(aminomethyl)-2-methylphenyl)amino)-2-methylthieno[2,3-g]quinoline 1,1-dioxide]	17.9
N#Cc1cc(Nc2ccnc3cc4c(cc23)S(=O)(=O)C=C4C2CC2)ccc1O [Compound A98]	14.8
CC1=Cc2cc3nccc(Nc4cc(N)cc(F)n4)c3cc2S1(=O)=O [Compound A71, 8-((4-amino-6-fluoropyridin-2-yl)amino)-2-methylthieno[2,3-g]quinoline 1,1-dioxide]	23.4
CC1=CS(=O)(=O)c2cc3c(Nc4n[nH]c5ccc(F)cc45)ccnc3cc21 [Compound A73]	40.7
O=S1(=O)C=Cc2cc3nccc(Nc4ccc5scnc5c4)c3c(O)c21 [Compound A109]	25
Cc1n[nH]c(Nc2ccnc3cc4c(cc23)S(=O)(=O)C(C)(C)C4=O)c1C [Compound B18]	22.7
CC1=C(C)S(=O)(=O)c2cc3c(Nc4n[nH]c5ccc(F)cc45)ccnc3cc21 [Compound A84]	18.1
O=S1(=O)C=C(C2CC2)c2cc3nccc(Nc4n[nH]c5ccc(F)cc45)c3cc21 [Compound A90]	36
CC1=CS(=O)(=O)c2cc3c(Nc4cc(O)ccc4F)ccnc3cc21 [Compound A79]	39.4
CC1=CS(=O)(=O)c2cc3c(Nc4ccc(O)cc4F)ccnc3cc21 [Compound A81]	28.8
O=S1(=O)C=C(n2ccnc2)c2cc3nccc(Nc4ccc5scnc5c4)c3cc21 [Compound A34]	15.5
CC1=CS(=O)(=O)c2cc3c(Nc4cc(O)ccc4C)ccnc3cc21 [Compound A76]	33.8
CC1=Cc2cc3nccc(Nc4ccnc(N)c4)c3cc2S1(=O)=O [Compound A65, 8-((2-aminopyridin-4-yl)amino)-2-methylthieno[2,3-g]quinoline 1,1-dioxide]	19.5
CC1=Cc2cc3nccc(Nc4cc(N)ccc4C)c3cc2S1(=O)=O [Compound A49]	60.3
CC1=Cc2cc3nccc(Nc4n[nH]c(C)c4C)c3cc2S1(=O)=O [Compound A38]	37.6
Nc1cc(C2=CS(=O)(=O)c3cc4c(Nc5ccc6scnc6c5)ccnc4cc32)ccn1 [Compound A29]	1.1
O=S1(=O)CC(c2ccccc2)c2cc3nccc(Nc4ccc5scnc5c4)c3cc21 (stereo not shown) [Compound B23]	12.7
CC1=Cc2cc3nccc(Nc4ccc5c(c4)C(=O)NCC5)c3cc2S1(=O)=O [Compound A43]	48.8
CC1=CS(=O)(=O)c2cc3c(Nc4cc(N)ccc4C)ccnc3cc21 [Compound A78]	10.5
CC1(C)C(=O)c2cc3nccc(Nc4ccc(O)c(C#N)c4)c3cc2S1(=O)=O [Compound B17]	22.8

Compound	viability at 20 µM [%]
CC1=Cc2cc3nccc(Nc4ccc(O)c(C(F)(F)F)c4)c3cc2S1(=O)=O [Compound A57]	15.3
O=S1(=O)C=C(C2CC2)c2cc3nccc(Nc4ccc5nc[nH]c5c4)c3cc21 [Compound A94]	28.9
CC1(C)C(=O)c2c(cc3c(Nc4ccc5scnc5c4)ccnc3c2C2CC2)S1(=O)=O [Compound B12, 8-(benzo[d]thiazol-5-ylamino)-4-cyclopropyl-2,2-dimethylthieno[2,3-g]quinolin-3(2H)-one 1,1-dioxide]	10.3
CC1=Cc2cc3nccc(Nc4cnc5scnc5c4)c3cc2S1(=O)=O [Compound A45]	27.6
O=C1c2cc3nccc(Nc4ccc5scnc5c4)c3cc2S(=O)(=O)C12CC=CC2 [Compound B22]	23.5
CC(=O)Nc1ccc(C)c(Nc2ccnc3cc4c(cc23)S(=O)(=O)C(C)=C4C)c1 [Compound A86]	20.5
O=S1(=O)c2cc3c(Nc4ccc5scnc5c4)ccnc3cc2OCC12CCC2 [Compound B26]	72.6
CC1=Cc2cc3nccc(Nc4ccc5c(c4)CN(C)CC5)c3cc2S1(=O)=O [Compound A42]	23.1
CC1=Cc2cc3nccc(Nc4ccc(O)cc4C)c3cc2S1(=O)=O [Compound A51]	16.1
CC1=Cc2cc3nccc(Nc4cncc(N)c4)c3cc2S1(=O)=O [Compound A64]	20.2
CC(C)C1=CS(=O)(=O)c2cc3c(Nc4ccc5scnc5c4)ccnc3cc21 [Compound A11]	34.5
O=C1NCCc2ccc(Nc3ccnc4cc5c(cc34)S(=O)(=O)C=C5C3CC3)cc21 [Compound A93]	11.1
CC1=Cc2cc3nccc(Nc4cc(O)cc(F)c4)c3cc2S1(=O)=O [Compound A59]	27.9
CC1=CS(=O)(=O)c2cc3c(Nc4n[nH]c(C)c4C)ccnc3cc21 [Compound A75]	32.3
CC1(C)C(O)(C2CC2)c2cc3nccc(Nc4ccc5scnc5c4)c3cc2S1(=O)=O (stereo not shown) [Compound B11]	26.2
N#Cc1cccc(Nc2ccnc3cc4c(cc23)S(=O)(=O)C=C4C2CC2)c1 [Compound A97]	22.5
CC1=Cc2cc3nccc(Nc4ccn5ncnc5c4)c3cc2S1(=O)=O [Compound A69]	10.5
C#Cc1cc(O)cc(Nc2ccnc3cc4c(cc23)S(=O)(=O)C(C)=C4)c1 [Compound A62]	22.3
CC1=Cc2cc3nccc(Nc4ccc(O)c(Br)c4)c3cc2S1(=O)=O [Compound A56]	23.2
O=S1(=O)CC2(COC2)c2cc3nccc(Nc4ccc5scnc5c4)c3cc21 [Compound B28, 8′-(benzo[d]thiazol-5-ylamino)-2′H-spiro[oxetane-3,3′-thieno[2,3-g]quinoline] 1′, 1′-dioxide]	15
CC1=Cc2cc3nccc(Nc4ccc5nc[nH]c5c4)c3cc2S1(=O)=O [Compound A40]	5.8
CC1=Cc2cc3nccc(Nc4cc(O)cc(C#N)c4)c3cc2S1(=O)=O [Compound A61]	29.2
O=C1c2c(cc3c(Nc4ccc5scnc5c4)ccnc3c2Cl)S(=O)(=O)C12CC=CC2 [Compound B21]	4.9
CC1=Cc2cc3nccc(Nc4cnc5snc(C)c5c4)c3cc2S1(=O)=O [Compound A44]	20.1
